Results as given in patent US11109593B2, “Isoxazolin-5-one derivative and herbicide containing same as active ingredient” (HOKKO CHEMICAL INDUSTRY CO., LTD., priority 2017, dated 2021).

Tested on: Echinochloa crus-galli
Experiment: Test Example 1: herbicidal effect test by treatment of rice paddy soil (immediately after seeding)
Format: in vivo
Details: 120 g/10a active ingredient, dry weight vs untreated area, 14 days after treatment
How it was run: (§1)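 Flooded paddy pot test in a glass greenhouse: emulsion diluted in water, dropped at 120 g a.i. per 10 ares just after sowing, water depth kept about 3 cm. Dry-weight reduction relative to untreated plants is scored at 14 days.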

SMILES | Herbicidal rate (%) Echinochloa crus-galli [%]
CCC(CC)n1oc(=O)c(Cc2ccccc2N(C(=O)C(C)C)S(=O)(=O)C(F)(F)F)c1C [Compound 1-331] | 90
Cc1c(Cc2ccccc2N(S(=O)(=O)C(F)(F)F)S(=O)(=O)C(F)(F)F)c(=O)on1CCC(C)(C)C [Compound 1-975] | 100
CC(=O)N(c1ccccc1Cc1c(C)n(C(C)(C)C)oc1=O)S(=O)(=O)C(F)(F)F [Compound 1-293] | 90

Tested on: Scirpus juncoides
Experiment: as above
Format: in vivo
Details: 120 g/10a active ingredient, dry weight vs untreated area, 14 days after treatment
How it was run: as §1

SMILES | Herbicidal rate (%) Scirpus juncoides [%]
CCC(CC)n1oc(=O)c(Cc2ccccc2N(C(=O)C(C)C)S(=O)(=O)C(F)(F)F)c1C [Compound 1-331] | 90
Cc1c(Cc2ccccc2N(S(=O)(=O)C(F)(F)F)S(=O)(=O)C(F)(F)F)c(=O)on1CCC(C)(C)C [Compound 1-975] | 90
CC(=O)N(c1ccccc1Cc1c(C)n(C(C)(C)C)oc1=O)S(=O)(=O)C(F)(F)F [Compound 1-293] | 90

Tested on: broad leaf weeds (Lindernia pyxidaria and Monochoria vaginalis)
Experiment: as above
Format: in vivo
Details: Lindernia pyxidaria, 120 g/10a active ingredient, dry weight vs untreated area, 14 days after treatment
How it was run: as §1

SMILES | Herbicidal rate (%) Lindernia pyxidaria [%]
CCC(CC)n1oc(=O)c(Cc2ccccc2N(C(=O)C(C)C)S(=O)(=O)C(F)(F)F)c1C [Compound 1-331] | 90
Cc1c(Cc2ccccc2N(S(=O)(=O)C(F)(F)F)S(=O)(=O)C(F)(F)F)c(=O)on1CCC(C)(C)C [Compound 1-975] | 90
CC(=O)N(c1ccccc1Cc1c(C)n(C(C)(C)C)oc1=O)S(=O)(=O)C(F)(F)F [Compound 1-293] | 90

Same assay, conditions: Monochoria vaginalis, 120 g/10a active ingredient, dry weight vs untreated area, 14 days after treatment

SMILES | Herbicidal rate (%) Monochoria vaginalis [%]
CCC(CC)n1oc(=O)c(Cc2ccccc2N(C(=O)C(C)C)S(=O)(=O)C(F)(F)F)c1C [Compound 1-331] | 90
Cc1c(Cc2ccccc2N(S(=O)(=O)C(F)(F)F)S(=O)(=O)C(F)(F)F)c(=O)on1CCC(C)(C)C [Compound 1-975] | 80
CC(=O)N(c1ccccc1Cc1c(C)n(C(C)(C)C)oc1=O)S(=O)(=O)C(F)(F)F [Compound 1-293] | 90

Tested on: Echinochloa crus-galli
Experiment: Test Example 2: herbicidal effect test by treatment during growing period in paddy rice cultivation (seven days after seeding)
Format: in vivo
Details: 120 g/10a active ingredient, assessed 14 days after treatment, dry weight vs untreated area
How it was run: (§2)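 Sow 30 seeds per species (0–1 cm) into puddled, fertilized paddy soil; keep flooded ~3 cm in greenhouse. Day 7 after seeding: drop water-diluted emulsion, 120 g a.i./10 ares. Harvest 14 d post-treatment; compare dry weight with untreated pots (duplicate).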

SMILES | Herbicidal rate (%) Echinochloa crus-galli [%]
CCC(CC)n1oc(=O)c(Cc2ccccc2N(C(=O)C(C)C)S(=O)(=O)C(F)(F)F)c1C [Compound 1-331] | 90
Cc1c(Cc2ccccc2N(S(=O)(=O)C(F)(F)F)S(=O)(=O)C(F)(F)F)c(=O)on1CCC(C)(C)C [Compound 1-975] | 100
CC(=O)N(c1ccccc1Cc1c(C)n(C(C)(C)C)oc1=O)S(=O)(=O)C(F)(F)F [Compound 1-293] | 90

Tested on: Scirpus juncoides
Experiment: as above
Format: in vivo
Details: 120 g/10a active ingredient, assessed 14 days after treatment, dry weight vs untreated area
How it was run: as §2

SMILES | Herbicidal rate (%) Scirpus juncoides [%]
CCC(CC)n1oc(=O)c(Cc2ccccc2N(C(=O)C(C)C)S(=O)(=O)C(F)(F)F)c1C [Compound 1-331] | 90
Cc1c(Cc2ccccc2N(S(=O)(=O)C(F)(F)F)S(=O)(=O)C(F)(F)F)c(=O)on1CCC(C)(C)C [Compound 1-975] | 80
CC(=O)N(c1ccccc1Cc1c(C)n(C(C)(C)C)oc1=O)S(=O)(=O)C(F)(F)F [Compound 1-293] | 90

Tested on: broad leaf weeds (Lindernia pyxidaria and Monochoria vaginalis)
Experiment: as above
Format: in vivo
Details: Lindernia pyxidaria, 120 g/10a active ingredient, assessed 14 days after treatment, dry weight vs untreated area
How it was run: as §2

SMILES | Herbicidal rate (%) Lindernia pyxidaria [%]
CCC(CC)n1oc(=O)c(Cc2ccccc2N(C(=O)C(C)C)S(=O)(=O)C(F)(F)F)c1C [Compound 1-331] | 90
Cc1c(Cc2ccccc2N(S(=O)(=O)C(F)(F)F)S(=O)(=O)C(F)(F)F)c(=O)on1CCC(C)(C)C [Compound 1-975] | 70
CC(=O)N(c1ccccc1Cc1c(C)n(C(C)(C)C)oc1=O)S(=O)(=O)C(F)(F)F [Compound 1-293] | 90

Same assay, conditions: Monochoria vaginalis, 120 g/10a active ingredient, assessed 14 days after treatment, dry weight vs untreated area

SMILES | Herbicidal rate (%) Monochoria vaginalis [%]
CCC(CC)n1oc(=O)c(Cc2ccccc2N(C(=O)C(C)C)S(=O)(=O)C(F)(F)F)c1C [Compound 1-331] | 90
Cc1c(Cc2ccccc2N(S(=O)(=O)C(F)(F)F)S(=O)(=O)C(F)(F)F)c(=O)on1CCC(C)(C)C [Compound 1-975] | 80
CC(=O)N(c1ccccc1Cc1c(C)n(C(C)(C)C)oc1=O)S(=O)(=O)C(F)(F)F [Compound 1-293] | 90

Tested on: Amaranthus viridis
Experiment: Test Example 3: herbicidal effect test by treatment of dry field farming soil (one day after seeding)
Format: in vivo
Details: 120 g/10a active ingredient, evaluated 14 days after treatment
How it was run: (§3)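 Weeds were seeded into the upper soil layer of alluvial field soil and, one day afterwards, the soil surface was sprayed with water-diluted emulsion delivering 120 g active ingredient per 10 ares. Mean plant dry weight relative to untreated pots after 14 days gave the herbicidal rate, tested in duplicate.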

SMILES | herbicidal rate, Amaranthus viridis [%]
CCC(CC)n1oc(=O)c(Cc2ccccc2N(C(=O)C(C)C)S(=O)(=O)C(F)(F)F)c1C [Compound 1-331] | 90
Cc1c(Cc2ccccc2N(S(=O)(=O)C(F)(F)F)S(=O)(=O)C(F)(F)F)c(=O)on1CCC(C)(C)C [Compound 1-975] | 90
CC(=O)N(c1ccccc1Cc1c(C)n(C(C)(C)C)oc1=O)S(=O)(=O)C(F)(F)F [Compound 1-293] | 90

Tested on: Chenopodium album
Experiment: as above
Format: in vivo
Details: 120 g/10a active ingredient, evaluated 14 days after treatment
How it was run: as §3

SMILES | herbicidal rate, Chenopodium album [%]
CCC(CC)n1oc(=O)c(Cc2ccccc2N(C(=O)C(C)C)S(=O)(=O)C(F)(F)F)c1C [Compound 1-331] | 90
Cc1c(Cc2ccccc2N(S(=O)(=O)C(F)(F)F)S(=O)(=O)C(F)(F)F)c(=O)on1CCC(C)(C)C [Compound 1-975] | 90
CC(=O)N(c1ccccc1Cc1c(C)n(C(C)(C)C)oc1=O)S(=O)(=O)C(F)(F)F [Compound 1-293] | 90

Tested on: Echinochloa crus-galli
Experiment: as above
Format: in vivo
Details: 120 g/10a active ingredient, evaluated 14 days after treatment
How it was run: as §3

SMILES | herbicidal rate, Echinochloa crus-galli [%]
CCC(CC)n1oc(=O)c(Cc2ccccc2N(C(=O)C(C)C)S(=O)(=O)C(F)(F)F)c1C [Compound 1-331] | 90
Cc1c(Cc2ccccc2N(S(=O)(=O)C(F)(F)F)S(=O)(=O)C(F)(F)F)c(=O)on1CCC(C)(C)C [Compound 1-975] | 80
CC(=O)N(c1ccccc1Cc1c(C)n(C(C)(C)C)oc1=O)S(=O)(=O)C(F)(F)F [Compound 1-293] | 90

Tested on: southern crabgrass
Experiment: as above
Format: in vivo
Details: 120 g/10a active ingredient, evaluated 14 days after treatment
How it was run: as §3

SMILES | herbicidal rate, southern crabgrass [%]
CCC(CC)n1oc(=O)c(Cc2ccccc2N(C(=O)C(C)C)S(=O)(=O)C(F)(F)F)c1C [Compound 1-331] | 90
Cc1c(Cc2ccccc2N(S(=O)(=O)C(F)(F)F)S(=O)(=O)C(F)(F)F)c(=O)on1CCC(C)(C)C [Compound 1-975] | 90
CC(=O)N(c1ccccc1Cc1c(C)n(C(C)(C)C)oc1=O)S(=O)(=O)C(F)(F)F [Compound 1-293] | 90

Tested on: Amaranthus viridis
Experiment: Test Example 4: herbicidal effect test by treatment of leave and stem in dry field farming (seven days after seeding)
Format: in vivo
Details: 120 g/10a active ingredient; emulsion sprayed seven days after seeding; evaluated 14 days after treatment
How it was run: (§4)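 Duplicate pots were scored 14 days post-spray by dry weight, herbicidal rate = {1 − treated/untreated average dry weight} × 100. The water-diluted emulsion, equivalent to 120 g active ingredient per 10 ares in 100 L, was applied seven days after sowing 20 seeds each into the upper 1 cm of alluvial soil.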

SMILES | herbicidal effect (herbicidal rate), Amaranthus viridis [%]
CCC(CC)n1oc(=O)c(Cc2ccccc2N(C(=O)C(C)C)S(=O)(=O)C(F)(F)F)c1C [Compound 1-331] | 40
Cc1c(Cc2ccccc2N(S(=O)(=O)C(F)(F)F)S(=O)(=O)C(F)(F)F)c(=O)on1CCC(C)(C)C [Compound 1-975] | 50
CC(=O)N(c1ccccc1Cc1c(C)n(C(C)(C)C)oc1=O)S(=O)(=O)C(F)(F)F [Compound 1-293] | 40

Tested on: Chenopodium album
Experiment: as above
Format: in vivo
Details: 120 g/10a active ingredient; emulsion sprayed seven days after seeding; evaluated 14 days after treatment
How it was run: as §4

SMILES | herbicidal effect (herbicidal rate), Chenopodium album [%]
CCC(CC)n1oc(=O)c(Cc2ccccc2N(C(=O)C(C)C)S(=O)(=O)C(F)(F)F)c1C [Compound 1-331] | 40
Cc1c(Cc2ccccc2N(S(=O)(=O)C(F)(F)F)S(=O)(=O)C(F)(F)F)c(=O)on1CCC(C)(C)C [Compound 1-975] | 40
CC(=O)N(c1ccccc1Cc1c(C)n(C(C)(C)C)oc1=O)S(=O)(=O)C(F)(F)F [Compound 1-293] | 40

Tested on: Echinochloa crus-galli
Experiment: as above
Format: in vivo
Details: 120 g/10a active ingredient; emulsion sprayed seven days after seeding; evaluated 14 days after treatment
How it was run: as §4

SMILES | herbicidal effect (herbicidal rate), Echinochloa crus-galli [%]
CCC(CC)n1oc(=O)c(Cc2ccccc2N(C(=O)C(C)C)S(=O)(=O)C(F)(F)F)c1C [Compound 1-331] | 90
Cc1c(Cc2ccccc2N(S(=O)(=O)C(F)(F)F)S(=O)(=O)C(F)(F)F)c(=O)on1CCC(C)(C)C [Compound 1-975] | 50
CC(=O)N(c1ccccc1Cc1c(C)n(C(C)(C)C)oc1=O)S(=O)(=O)C(F)(F)F [Compound 1-293] | 90

Tested on: southern crabgrass
Experiment: as above
Format: in vivo
Details: 120 g/10a active ingredient; emulsion sprayed seven days after seeding; evaluated 14 days after treatment
How it was run: as §4

SMILES | herbicidal effect (herbicidal rate), southern crabgrass [%]
CCC(CC)n1oc(=O)c(Cc2ccccc2N(C(=O)C(C)C)S(=O)(=O)C(F)(F)F)c1C [Compound 1-331] | 90
Cc1c(Cc2ccccc2N(S(=O)(=O)C(F)(F)F)S(=O)(=O)C(F)(F)F)c(=O)on1CCC(C)(C)C [Compound 1-975] | 0
CC(=O)N(c1ccccc1Cc1c(C)n(C(C)(C)C)oc1=O)S(=O)(=O)C(F)(F)F [Compound 1-293] | 90
